Test results published in patent publication US4451485A, “Treatment of cardio-vascular diseases with 3-(2,2,2-trimethylhydrazinium) propionate dihydrate” (Institu Organicheskogo Sinteza Akademii Nauk Latviiskoi SSR, priority 1981, dated 1984).
“And” between values parts separate entries of the source, which are not always exact repeats. Equal values may be shown once. Read-outs that look alike come from different tables or passages of the source.

Experiments:
[1] = Physicochemical properties of the dihydrate (solubility, stability, hygroscopicity)
[2] = Vessel wall irritation and allergenic capacity; type: in vivo
[3] = Effect on Strophanthin K arrhythmia in narcotized guinea pigs (500 μg/kg); type: in vivo
Description: (§1) After the administration of the preparation at a dose of 5 mg/kg the regular synusal rhythm was retained for 12±5 minutes on the average, whereafter arrhythmia was gradually renewed, but it could be again eliminated by a repeated administration of the preparation at a dose of 2-5 mg/kg. In such cases the sinusal rhythm was retained for 15 to 30 minutes and in the majority of tests arrhythmia never renewed. Furthermore, an experiment was carried out on narcotized guinea pigs with a mass of 600-710 g to which Strophanthin -K was administered into the femoral vein at a total dose of 500 μg/kg.
The preparation based on 3-(2,2,2-trimethylhydrazonium)propionate was intravenously administered against the background of arrhythmia in the test group.
The graph illustrates the recording of ECG of a guinea pig.
The effect of compound I on Strophanthin arrhythmia in guinea pigs.

[4] = Clinical tests on patients with various kinds of pathology; conditions: human, in vivo
From the text: The pharmaceutical preparation according to the present invention can be useful in the treatment of such diseases as heart insufficiency, valvular defects, myocarditises, cardiosclerosis, ischemic heart disease, rhythm disturbances of different genesis. […] The preparation according to the present invention has been tested in experiments on animals and in clinics on patients with various kinds of pathology.
The preparation has been studied on more than 65 patients suffering from various pathology of the cardio-vascular systems such as heart rhythm disturbances (arrhythmia) of different etiology, ischemic heart disease, stenocardia, and atherosclerosis.

in vivo [5] = type: in vivo
salmoneallae = assay: Mutagenous activity on salmonellae; conditions: dihydrate
fruit flies = assay: Mutagenous activity on fruit flies; type: in vivo; conditions: dihydrate
[6] = Aconitine model of arrhythmia in white rats; type: in vivo
Description: (§2) For the comparison of preparations, as the criterion of the range of therapeutic effect, there was used the ratio of the half-lethal dose to the half-effective dose (LD50 /ED50) which was referred to as the antiarrhythmic index. […] The comparative study of the antiarrhythmic activity of pharmaceutical preparations using an acotine model of arrhythmia was effected in experiments on white rats weighing 190-240 g. The test preparations were administered intraperitoneally 10-40 minutes before administration of aconitine.

[7] = Variation of the arrhythmogenic dose of Strophanthin G in rabbits; type: in vivo
Description: The effect of the preparation according to the present invention on the variation of the arrhythmogenic dose of Strophanthin G was studied in experiments on rabbits of both sexes with a mass of […] administered with Strophanthin G at a dose of 60 μg/kg into the marginal auricular vein and, after every 5-10 minutes, at a dose of 5-10 μg/kg until the appearance of a stable ventricular extrasystole. In the test groups 20-30 minutes before administration of the glycoside a solution of 3-(2,2,2-trimethylhydrazinium)propionate was prophylactically administered intravenously. The ECG was recorded in II standard lead.
At a further increase of the dose to the preparation to the present invention, its protective effect was increased too.

[8] = Threshold of electric fibrillation of auricles and ventricles in cats; type: in vivo
Description: Furthermore, the preparation according to the present invention was tested for specific antiarrhythmic and antianginal effects. […] The effect of the novel pharmaceutical composition according to the present invention was studied on cats weighing 2.9-3.6 kg. The preparation was used as a 10% aqueous solution containing 3-(2,2,2-trimethylhydrazinium)propionate for the determination of the threshold value of electric fibrillation of auricles and ventricles. Under artificial respiration after opening of the thorax and pericardium, needle-like electrodes were applied to the right auricula and apex of the left ventricle. The irritation was effected by square pulses of 1 m.s., 15 st/s.
as §2

[9] = Variation of arrhythmogenic and lethal doses of CaCl2 in mice; type: in vivo, white mice
Description: Thus, the effect of the preparation according to the present invention has been studied relative to the variation of arrhythmogenic and lethal doses of calcium chloride. An experiment was carried out on white mice of both sexes weighing 19-28 g which were narcotized by urethane and an ECG was remetered in transthoracic lead. A 2% solution of calcium chloride was administered to the test animals into the tail vein at a constant rate (0.1 ml for 15 seconds). The average dose of calcium chloride causing the appearance of arrhythmia and heart arrest was determined. In the test groups, the studied compounds were administered 45, 60, 120, 180 and 240 minutes before the beginning of administration of calcium chloride (Table 1).
Variation of arrthythmogenic and lethal doses of CaCl2
with time after administration of the studied
pharmaceutical compositions in experiments on mice.

[10] = Therapeutic effect on Strophanthin G arrhythmia in rabbits; type: in vivo
Description: To investigate the therapeutic effect of the preparation according to the present invention relative to the Strophanthin arrhythmia, another series of experiments was carried out. Strophanthin was intravenously administered to rabbits of both sexes with a mass of 3.0 to 3.8 kg at a general dose of 80 μg/kg which caused arrhythmia within 40-60 minutes. The test preparation was intravenously administered at the background of arrhythmia in the test group.
as §1

in vivo [11] = assay: in vivo; parameters: species or system white mice; conditions: white mice
[12] = 10 mg/kg intraperitoneal, 60 minutes
[13] = 10 mg/kg intraperitoneal, 120 minutes
[14] = 10 mg/kg intraperitoneal, 180 minutes
[15] = 30 mg/kg intraperitoneal, 60 minutes
[16] = 30 mg/kg intraperitoneal, 180 minutes
[17] = 30 mg/kg intraperitoneal, 240 minutes

Structure (SMILES): C[N+](C)(C)NCCC(=O)[O-] [3-(2,2,2-trimethylhydrazinium)propionate]
- Hygroscopicity ([1]; dihydrate): slightly hygroscopic
- Solubility in hot ethanol and methanol ([1]; dihydrate): well soluble
- Solubility in nonpolar solvents ([1]; dihydrate): insoluble
- Solubility in water ([1]; dihydrate): well soluble
- Storage stability ([1]; dihydrate, closed area, room temperature): 2 years
- Thermal stability ([1]; heating above 40° C.): loses crystallization water and slowly decomposes
- Irritation of vessel walls ([2]; intravenous): does not cause irritation of vessel walls
- Allergic responses ([2]; intravenous and peroral, single or up to 30 days): nor does it cause allergic responses
- Effect on atrio-ventricular block ([3]; 2-5 mg/kg, timely administration, some cases): possible to also eliminate the atrio-ventricular block
- Changes in the complex QRST and atrial fibrillation ([3]; intravenous): The changes in the complex QRST were reduced and the atrial fibrillation disappeared
- Effect on ventricular arrhythmia ([3]; intravenous): temporarily arrested the ventricular arrhythmia
- Time to arrest of ventricular arrhythmia ([3]; intravenous): 2 to 3 min
- Therapeutic effects in paroxysmal tachycardia, fibrillation, A-V block and paroxysms [4]: positive, though less pronounced, effects
- Therapeutic results in chronic decompensation (rheumatic valvular defects) and acute circulatory insufficiency (myocardial infarction) [4]: Especially pronounced therapeutic results
- LD50 (in vivo [5]; mouse, in vivo, ip, read-out: Acute toxicity, LD50): 7850 mg/kg
- Toxicity lower than that of carbocromene (in vivo [5]; vs carbocromene): 12 times
- Mutagenous activity (salmoneallae): does not have mutagenous activity
- Mutagenous activity (fruit flies): does not have mutagenous activity
- ED50 ([6]; Rattus norvegicus, ip, read-out: ED50, aconitine arrhythmia in rats): 12.5 ± 2.5 mg/kg
- Antiarrhythmic index LD50/ED50, aconitine arrhythmia in rats ([6]; rat, in vivo): 354
- Duration of arrhythmia ([7]; 10 mg/kg intravenously, control 20 ± 10): 12 ± 6 min
- Arrhythmogenic dose of Strophanthin ([7]; 10 mg/kg intravenously, control 67 ± 9): 0.09 ± 0.015 mg/kg
- Arrhythmogenic dose of Strophanthin ([7]; 25 mg/kg intravenously): 0.1 ± 0.01 mg/kg
- Duration of arrhythmia ([7]; 25 mg/kg intravenously): 8 ± 5 min
- Arrhythmogenic dose of Strophanthin ([7]; 50 mg/kg intravenously): 0.106 ± 0.012 mg/kg
- Duration of arrhythmia ([7]; 50 mg/kg intravenously): 15 ± 8 min
- Increase of the threshold of electrical fibrillation of auricle and ventricles ([8]; 6 to 15 mg/kg intravenous): 40-55%
- ED50 ([8]; Felis catus, iv, read-out: ED50, electric irritation of cat's heart): 10 ± 3.5 mg/kg
- Antiarrhythmic index LD50/ED50, electric irritation of cat's heart ([8]; intravenous): 443 and 433
- Arrhythmogenic dose of CaCl2 ([9]; 10 mg/kg intraperitoneal, 45 minutes before CaCl2, control 85): 91.5 mg/kg
- Lethal dose of CaCl2 ([9]; 10 mg/kg intraperitoneal, 45 minutes before CaCl2, control 100.9): 101.7 mg/kg
- Arrhythmogenic dose of CaCl2 [9, 12]: 103.4 mg/kg
- Lethal dose of CaCl2 [9, 12]: 122.2 mg/kg
- Arrhythmogenic dose of CaCl2 [9, 13]: 111.9 mg/kg
- Lethal dose of CaCl2 [9, 13]: 130 mg/kg
- Arrhythmogenic dose of CaCl2 [9, 14]: 110.1 mg/kg
- Lethal dose of CaCl2 [9, 14]: 116 mg/kg
- Arrhythmogenic dose of CaCl2 [9, 15]: 106.7 mg/kg
- Lethal dose of CaCl2 [9, 15]: 122.8 mg/kg
- Arrhythmogenic dose of CaCl2 [9, 16]: 117.5 mg/kg
- Lethal dose of CaCl2 [9, 16]: 130.2 mg/kg
- Arrhythmogenic dose of CaCl2 [9, 17]: 121.9 mg/kg
- Lethal dose of CaCl2 [9, 17]: 128 mg/kg
- Effect on arrhythmogenic and lethal doses of calcium chloride ([9]; single intraperitoneal administration): increases the arrhythmogenic and lethal doses of calcium chloride
- Duration regular sinus rhythm was retained ([10]; 5 mg/kg, average): 12 ± 5 min
- Time to arrest of ventricular tachyarrhythmia ([10]; 1 to 3 mg/kg intravenous): 1 to 2 min
- Effect on ventricular tachyarrhythmia ([10]; 1 to 3 mg/kg intravenous, majority of tests): temporarily arrested ventricular tachyarrhythmia
- Changes in the complex QRST ([10]; intravenous): reduced
- Duration sinusal rhythm was retained after repeated administration ([10]; repeated administration, 2-5 mg/kg): 15 to 30 min
- LD50 (in vivo [11]; mouse, in vivo, intravenous (Table 2)): 4430 mg/kg
- Acute toxicity, LD50 (in vivo [11]; intravenous (Table 5)): 4,430 mg/kg
